Measurements published in patent publication US5561133A, “Thymidylate synthase inhibiting quinazolinones” (British Technology Group Limited, priority 1992, dated 1996).
pIC50: −log10 of the molar value.

Assays:
[1] = tested on: L1210 cell line; assay: inhibition of growth of the leukaemia cell line L1210 in cell culture; type: cell-based; conditions: Mus musculus, read-out: IC50 against the L1210 cell line
Excerpt: (b) An assay which determines the ability of a test compound to inhibit the growth of the leukaemia cell line L1210 in cell culture. The test may be similar to that described in UK Patent Specification No. 2065653B; and […]

[2] = tested on: MCF-7 cell line; assay: inhibition of growth of the human breast cancer cell line MCF-7 in cell culture; type: cell-based; conditions: MCF7, MCF-7 cell culture, read-out: IC50 against the MCF-7 cell line
Excerpt: (c) An assay which determines the ability of a test compound to inhibit the growth of the human breast cancer cell line MCF-7 in cell culture. The test may be similar to that described by Lippman et al (Cancer Res., 1976, 36, 4595).

[3] = tested on: human breast,ovarian and liver cancer; conditions: clinical, humans; cited from earlier work
[4] = particularly liver and kidneys; cited from earlier work

Structure (SMILES) | pIC50 [1] | pIC50 [2] | activity against human breast, ovarian and liver cancer [3] | toxicity in humans [4]
C#CCN(Cc1ccc2nc(C)[nH]c(=O)c2c1)c1ccc(C(=O)N[C@@H](CCC(=O)N(C)[C@@H](CCC(=O)O)C(=O)O)C(=O)O)cc1 [Example 1, N-p-[N-(3,4-Dihydro-2-methyl-4-oxoquinazolin-6-ylmethyl)-N-(prop-2-ynyl)amino]benzoyl-L-γ-glutamyl-N-methyl-L-glutamic acid] | 6.62 | 6.52 |  | 
C#CCN(Cc1ccc2nc(N)[nH]c(=O)c2c1)c1ccc(C(=O)N[C@@H](CCC(=O)O)C(=O)O)cc1 [CB3717] |  |  | promising activity | symptoms of toxicity in humans, particularly in relation to the liver and kidneys
